One data set has as its system HSC. Conditions: transient administration; cited from earlier work.
Another data set deals with CD8+CD62Lhi CD44+ cells. Briefly: G-CSF mobilization of blood leukocytes and T-cell subsets with GMI-1271 co-administration (flow cytometry of blood). Type of data set: in vivo, mice (C57bl/6). Conditions: C57bl/6 mice; for CD44+CD62hi CD4+ T-cells per uL blood: G-CSF administration, with or without GMI-1271 co-administration, FIG. 4B. As to the method:
The following classification was used in the following experiments. Of all the CD8+ cells the Tnaive, population is CD62hi […]; the TCM/SCM population is CD62hi CD44+; and the TEM population is CD44+CD62^− population. An increase in the TCM/SCM mouse cell population is observed below (see FIGS. 1 through 6).
Cohorts of mice (C57bl/6 adult 10 week old males) were administered G-CSF (Filgastim, Amgen) at 125ug/kg/injection bidaily subcutaneous injections for a total of 72 hours before sacrifice (with non-mobilised control group #1 receiving saline injection instead).
The E-selectin mimetic antagonist GMI-1271 (bidaily intraperitoneal injections at 40 mg/kg/injection), was co-administered to these mice at specified timepoints prior to sacrifice with a final GMI-1271 injection always occurring exactly 1 hour prior to sacrifice. Generally all mice received injections at 9 am and 6 pm every day with n=4 per group. The injection groups are outlined in FIG. 1 and are detailed below.
The mouse groups were: Group 1. non-mobilised control, Group 2. G-CSF alone control, Group 3. 14 hours GMI-1271, Group 4. 24 hours GMI-1271, Group 5. 48 hours GMI-1271, Group 6. 72 hours GMI-1271
After 3 days (72 hours) G-CSF administration mice were euthanised administration and heparinised blood collected by cardiac puncture. Total blood leukocytes counts were enumerated using an automated haematological cell counter (Beckman-Coulter KX-21), For flow cytometry, red cells were first lysed using ammonium lysis then blood leukocytes washed in phosphate buffered saline (PBS) containing 2% fetal calf serum and incubated on ice in the presence of excess FcBlock (CD16/CD32 hybridoma 2.4G2 supernatant to block endogenous Fc receptors) following the methodology in Winkler et al., Nature Medicine 2012. Cells were stained using the antibodies CD4-pacific blue, CD8-peCY7, CD62L-BV605, CD44-AF700 at a final concentration of approx 5 million leukocytes per 100 uL volume containing 0.5 ug of each of the above conjugated monoclonal antibodies. All conjugated antibodies were purchased from Biolegend, CA. After 40 minutes incubation on ice, cells were washed to remove excess antibody (by addition of 1 mL PBS, centrifugation at 370×g for 5 minutes at 4 C, removal of supernatant and resuspension of pellet in 100 uL PBS with 2% fetal calf serum). Flow cytometry of cells was performed on the 8 colour CYAN (Beckman Coulter) using unstained blood and single colour controls to set voltages and gating strategy.
CD8+ Tcell subsets were divided based on CD62 and CD44 staining. With CD8+ naive T cells being CD62hi CD44−, CD8+T CM/SCM cells being CD62hi CD44+ double positive and TEM being CD44+ and CD62 negative following routine methodology.
Data was later analysed using the Flow Jo software and collated in excel software. Figures and statistics were by ANOVA using prism software.

Another data set relates to HSCs. The following applies: E-selectin inhibition during HSC mobilization with G-CSF; cited from earlier work.
The nature of data set [1]: Mobilization of CCR7 cells by G-CSF and GMI-1271: PBMC counts and marker-positive cells by flow cytometry. Type of data set: in vivo, Mouse. Conditions: IP qdX3, blood PBMC. As to the method: (§1) 1) Test Animals: • 1. Species: Mouse • 2. Strain: Balb/C and C57BV6 • 3. Age and gender 7-9 weeks, Female • 4. Source: Harlan Laboratories • 5. Total number: 25
(§2) G-CSF and GM-1271 in powder form. The test agents were reconstituted with saline 600 μg of G-CSF was dissolved in 6.5 mL of sterile saline giving a concentration of 92.307 μg/mL. Animals were administered with 0.1 mL of dose solution per time point giving the dose concentration for G-CSF was 9.23 μg per mouse per time point.
(§3) 70 mg of GM-1271 was reconstituted with 7 mL of sterile saline giving a concentration of 10 mg/mL. Animals were administered with 0.1 mL of dose solution per time point giving the dose concentration for GM-1271 was 1 mg per mouse per time point.
(§4) • To purify PBMCs, red blood cells (RBCs) in the whole blood were lysed using ACK Lysing Buffer (Life Technologies, A1049201). Whole blood was mixed with ACK Lysing Buffer at a 1: 25 ratio and incubated at room temperature on shaker for 5 min. The cells were centrifuged at 350 g for 7 min and the supernatant was discarded. The purified PBMCs were suspended in PBS containing 2% FBS. Cell counts were performed, pelleted at 250×g for 10 minutes and suspended in 5 ml HBSS containing containing Ca2+ and Mg2+(Life Technologies catalog #14025-092) plus 0.05% bovine serum albumin (BSA) to […] for antibody staining.
(§5) • Add 100 ul cells (2-3×10^5 cells) per tube (5 mL polypropylene round-bottom tubes (BD Falcon tubes #352063, VWR catalog #60819-728). Add indicated amounts of Alexa Fluor 488® labeled antibodies as indicated in Table 3 and immediately place on ice. • Place tubes at 4° C. for 1 hour then add 2 mL cold HBSS/BSA to each tube and pellet cells 250×g for 10 minutes. Pour off supernatant and suspend the cell pellet in 1 mL cold HBSS/BSA. Pellet cells 250×g for 10 minutes, pour off supernatant, and suspend cell pellet in 250 microliters HBSS/BSA. Add 250 microliters 2% formaldehyde (Polysciences, Inc. catalog #04018, 10% ultrapure, EM grade, methanol-free). Proceed to flow cytometry.
(§6) • Fluorescence was acquired via blue laser excitation at 488 nm with emission at 530 nm using preset lasers equipped on the Attune@ NxT Accoustic Focusing Cytometer (Life Technologies). 2×104 events were collected for each sample and analyzed with the use of the Attune® NxT Cytometric Software v2.1. Results were recorded as median fluorescent intensity, % cells positive for a given marker, and as cell concentration of expressing the specific marker per mL.
(§7) These experiments were done in both Balb/c (top table) and BL6 (bottom table) mouse strains.

Another data set has as its system CCR7+ cells. The data set is described as above. Type of data set: in vivo, Mouse. The following applies: for CCR7 Cells/mL(10^5): IP qdX3, blood PBMC. As for the experimental part:
as §1, §2, §3, §4, §5, §6, §7

For data set [2] the following is noted: in vivo; cited from earlier work.

For the molecule `C[C@@H]1O[C@@H](O[C@@H]2[C@@H](NC(=O)c3cc(=O)[nH]c(=O)[nH]3)C[C@@H](C(=O)NCCNC(=O)COCCOCC(=O)Nc3cc(S(=O)(=O)O)cc4cc(S(=O)(=O)O)cc(S(=O)(=O)O)c34)C[C@H]2O[C@@H]2O[C@H](CO)[C@H](O)[C@H](O[C@@H](CC3CCCCC3)C(=O)O)[C@H]2OC(=O)c2ccccc2)[C@@H](O)[C@H](O)[C@@H]1O` [GMI-1070], the HSC self-renewal result with HSC is “promotes HSC self-renewal”.
Regarding `CC[C@H]1C[C@@H](C(=O)NCCNC(=O)CCOCCOCCOCCOCCOCCOCCOCCOCCOCCOCCOCCOC)C[C@@H](O[C@@H]2O[C@H](CO)[C@H](O)[C@H](O[C@@H](CC3CCCCC3)C(=O)[O-])[C@H]2NC(C)=O)[C@@H]1O[C@@H]1O[C@@H](C)[C@@H](O)[C@@H](O)[C@@H]1O.[Na+]` [GMI-1271], the “Total leukocytes per uL blood, increase over G-CSF 3 days alone” value in the data set on CD8+CD62Lhi CD44+ cells (24 hr administration of GMI-1271 with 72 h G-CSF, FIG. 2) is on record as ~1.5 fold. Further, the “CD44+CD62hi CD8+ Tcells per uL blood” value with CD8+CD62Lhi CD44+ cells (24 hrs GMI-1271 co-administration with G-CSF, FIG. 5B) is “significantly increased”. Also, the “CD44+CD62hi CD4+ T-cells per uL blood” value in the data set with CD8+CD62Lhi CD44+ cells is given as “does not appear to boost their numbers in blood”. Besides, the “CD4+ Tcells per uL blood” value with CD8+CD62Lhi CD44+ cells (G-CSF with GMI-1271 co-administration, FIG. 4A) is listed as “no change”. In addition, the “CD8+ Tcells per uL blood” value in the data set on CD8+CD62Lhi CD44+ cells (G-CSF with GMI-1271 co-administration, FIG. 5A) was “no changes”. Also, the “Total T-cells per uL blood (CD4+ and CD8+ combined)” value in the data set on CD8+CD62Lhi CD44+ cells (GMI-1271 co-administration with G-CSF, FIG. 3) is “No change”. For the same molecule, the “reconstitution potential of mobilized HSCs” value with HSCs is reported as ~25 fold. Moreover, in data set [1] (BL6 mice (bottom table)), the “CD4 Cells/mL(10^5)” value is 0.43 10^5 cells/mL, the “CD8 Cells/mL(10^5)” value is 1.74 10^5 cells/mL, the “CD44 Cells/mL(10^5)” value is reported as 3.56 10^5 cells/mL and the “CD62L Cells/mL(10^5)” value is on record as 0.19 10^5 cells/mL. Further, in data set [1] (BL6 mice (bottom table)), the “Total cells/mL (10^6 + SD)” value is on record as 1.89 ± 0.40 10^6 cells/mL. Besides, in data set [1] (Balb/c mice (top table)), the “CD4 Cells/mL(10^5)” value was 1.56 10^5 cells/mL, the “CD8 Cells/mL(10^5)” value is recorded as 0.49 10^5 cells/mL, the “CD44 Cells/mL(10^5)” value is given as 4.76 10^5 cells/mL and the “CD62L Cells/mL(10^5)” value is recorded as 0.74 10^5 cells/mL. For the same molecule, the “Total cells/mL (10^6 + SD)” value in data set [1] (Balb/c mice (top table)) is reported as 1.01 ± 0.46 10^6 cells/mL. Also, the “CCR7 Cells/mL(10^5)” value with CCR7+ cells (BL6 mice (bottom table)) is reported as 0.23 10^5 cells/mL. For the same molecule, the “CCR7 Cells/mL(10^5)” value in the data set on CCR7+ cells (Balb/c mice (top table)) is listed as 1.68 10^5 cells/mL. The “mobilization of CCR7+ cells” value with CCR7+ cells (addition of GMI-1271 to G-CSF, both Balb/c and BL6 strains) is recorded as “increases the mobilization of CCR7+ cells”.

B1: G-CSF: granulocyte-colony stimulating factor, a glycoprotein; Example I used Filgastim (Amgen) (protein, UniProt P09919 31-207, looked up)
Granulocyte …: TPLGPASSLPQSFLLKCLEQVRKIQGDGAALQEKLVSECATYKLCHPEELVLLGHSLGIPWAPLSSCPSQALQLAGCLSQLHSGLFLYQGLLQALEGISPELGPTLDTLQLDVADFATTIWQQMEELGMAPALQPTQGAMPAFASAFQRRAGGVLVASHLQSFLEVSYRVLRHLAQP
modifications: filgrastim
B1: the “CD44+CD62hi CD4+ T-cells per uL blood” value in the data set on CD8+CD62Lhi CD44+ cells is given as “appear to be decreased”. Besides, in data set [1] (BL6 mice (bottom table)), the “CD4 Cells/mL(10^5)” value is given as 1.10 10^5 cells/mL, the “CD8 Cells/mL(10^5)” value is reported as 10.00 10^5 cells/mL, the “CD44 Cells/mL(10^5)” value was 12.65 10^5 cells/mL and the “CD62L Cells/mL(10^5)” value is reported as 0.09 10^5 cells/mL. In addition, in data set [1] (BL6 mice (bottom table)), the “Total cells/mL (10^6 + SD)” value is listed as 5.98 ± 2.25 10^6 cells/mL. In addition, in data set [1] (Balb/c mice (top table)), the “CD4 Cells/mL(10^5)” value is recorded as 3.43 10^5 cells/mL, the “CD8 Cells/mL(10^5)” value was 1.32 10^5 cells/mL, the “CD44 Cells/mL(10^5)” value is on record as 14.88 10^5 cells/mL and the “CD62L Cells/mL(10^5)” value is recorded as 1.59 10^5 cells/mL. Moreover, the “Total cells/mL (10^6 + SD)” value in data set [1] (Balb/c mice (top table)) is on record as 2.67 ± 0.64 10^6 cells/mL. Further, the “CCR7 Cells/mL(10^5)” value in the data set with CCR7+ cells (BL6 mice (bottom table)) is 0.60 10^5 cells/mL. Moreover, the “CCR7 Cells/mL(10^5)” value in the data set on CCR7+ cells (Balb/c mice (top table)) is on record as 4.00 10^5 cells/mL.

B2: Pegfilgrastim: Filgrastim with pegylation (20 kD-PEG) modification on the N terminal (protein, UniProt P09919 31-207, looked up)
Granulocyte …: B1 Granulocyte …
modifications: N-terminal 20 kDa PEG; pegfilgrastim
On to B2, for which, in data set [2], the half-life is 15 to 80 h.

B3: Filgrastim: recombinant G-CSF expressed by E. coli, 175 amino acids, 19 kD, amino terminus methionine (protein, UniProt P09919 31-207, looked up)
Granulocyte …: B1 Granulocyte …
modifications: filgrastim, N-terminal Met
Consider B3, for which the half-life in data set [2] is 3.5 h.
